The source of these data is ChEMBL document CHEMBL3351679, “Radioiodinated benzyloxybenzene derivatives: a class of flexible ligands target to β-amyloid plaques in Alzheimer's brains” (J Med Chem, 2014).

In series [1] the target is T1, Amyloid-beta precursor protein (Homo sapiens, UniProt P05067). Description: Displacement of [125I]1-Iodo-4-((4-methoxyphenoxy)methyl)benzene from amyloid beta42 (unknown origin) after 3 hrs by gamma counting.
In series [2] the target is T1, Amyloid-beta precursor protein. Description: Binding affinity to amyloid beta42 (unknown origin) after 3 hrs by gamma counting.
A short description of series [3]: Partition coefficient, log D of the compound. The series is classed as physicochemical. As to conditions: octanol/water.
Series [4] deals with Brain. Description: Biodistribution in ICR mouse brain at 250 uCi, iv measured at 2 mins post dose. To be noted: in vivo. The series is classed as ADME, organism-based.
The test system of series [5] is Brain. Description: Biodistribution in ICR mouse brain at 250 uCi, iv measured at 60 mins post dose. The series is classed as ADME, organism-based. To be noted: in vivo, 1 h.
The test system of series [6] is Brain. Description: Ratio of drug uptake in ICR mouse brain at 250 uCi, iv measured at 2 mins post dose to drug uptake in ICR mouse brain at 250 uCi, iv measured at 60 mins post dose. It is filed as ADME, organism-based. To be noted: in vivo.
In the next series the test system is Plasma. Description: Biostability in mouse plasma assessed as radioactivity at 30 uCi at 37 degC measured at 60 mins by HPLC. The series is classed as ADME, cell-free. To be noted: 1 h.
The test system of series [7] is Liver. Description: Biostability in mouse liver homogenate assessed as radioactivity at 30 uCi at 37 degC measured at 60 mins by HPLC. The series is classed as ADME, tissue-based. As to conditions: tissue homogenate, 1 h.
The test system of series [8] is Brain. Description: In vivo biostability in ICR mouse brain assessed as radioactivity at 250 uCi, iv measured at 2 mins post dose. It is filed as ADME, organism-based.
Series [9] concerns Brain. Description: In vivo biostability in ICR mouse brain assessed as radioactivity at 250 uCi, iv measured at 10 mins post dose. It is filed as ADME, organism-based.
The test system of series [10] is Brain. Description: In vivo biostability in ICR mouse brain assessed as radioactivity at 250 uCi, iv measured at 30 mins post dose. The series is classed as ADME, organism-based. To be noted: 0.5 h.
In series [11] the test system is Brain. Description: In vivo biostability in ICR mouse brain assessed as radioactivity at 250 uCi, iv measured at 60 mins post dose. The series is classed as ADME, organism-based. To be noted: 1 h.
The test system of series [12] is Blood. Description: In vivo biostability in ICR mouse blood assessed as radioactivity at 250 uCi, iv measured at 2 mins post dose. The series is classed as ADME, organism-based.
For series [13], the system named is Blood. Description: In vivo biostability in ICR mouse blood assessed as radioactivity at 250 uCi, iv measured at 10 mins post dose. It is filed as ADME, organism-based.
Series [14] deals with Blood. Description: In vivo biostability in ICR mouse blood assessed as radioactivity at 250 uCi, iv measured at 30 mins post dose. It is filed as ADME, organism-based. To be noted: 0.5 h.
For series [15], the system named is Blood. Description: In vivo biostability in ICR mouse blood assessed as radioactivity at 250 uCi, iv measured at 60 mins post dose. The series is classed as ADME, organism-based. To be noted: 1 h.
The test system of series [16] is Liver. Description: In vivo biostability in ICR mouse liver assessed as radioactivity at 250 uCi, iv measured at 2 mins post dose. The series is classed as ADME, organism-based.
For series [17], the system named is Liver. Description: In vivo biostability in ICR mouse liver assessed as radioactivity at 250 uCi, iv measured at 10 mins post dose. It is filed as ADME, organism-based.
Series [18] concerns Liver. Description: In vivo biostability in ICR mouse liver assessed as radioactivity at 250 uCi, iv measured at 30 mins post dose. The series is classed as ADME, organism-based. To be noted: 0.5 h.
The subject of series [19] is Liver. Description: In vivo biostability in ICR mouse liver assessed as radioactivity at 250 uCi, iv measured at 60 mins post dose. It is filed as ADME, organism-based. To be noted: 1 h.
Series [20] is described as follows: In vivo biostability in ICR mouse urine assessed as radioactivity at 250 uCi, iv measured at 10 mins post dose. The series is classed as ADME, organism-based.
Series [21] is described as follows: In vivo biostability in ICR mouse urine assessed as radioactivity at 250 uCi, iv measured at 30 mins post dose. The series is classed as ADME, organism-based. As to conditions: 0.5 h.
Series [22] can be described thus: In vivo biostability in ICR mouse urine assessed as radioactivity at 250 uCi, iv measured at 60 mins post dose. It is filed as ADME, organism-based. To be noted: 1 h.
The nature of series [23]: In vivo biostability in ICR mouse feces assessed as radioactivity at 250 uCi, iv measured at 30 mins post dose. The series is classed as ADME, organism-based. To be noted: 0.5 h.
The nature of series [24]: In vivo biostability in ICR mouse feces assessed as radioactivity at 250 uCi, iv measured at 60 mins post dose. It is filed as ADME, organism-based. As to conditions: 1 h.

T1 sequence (P05067 whole entry): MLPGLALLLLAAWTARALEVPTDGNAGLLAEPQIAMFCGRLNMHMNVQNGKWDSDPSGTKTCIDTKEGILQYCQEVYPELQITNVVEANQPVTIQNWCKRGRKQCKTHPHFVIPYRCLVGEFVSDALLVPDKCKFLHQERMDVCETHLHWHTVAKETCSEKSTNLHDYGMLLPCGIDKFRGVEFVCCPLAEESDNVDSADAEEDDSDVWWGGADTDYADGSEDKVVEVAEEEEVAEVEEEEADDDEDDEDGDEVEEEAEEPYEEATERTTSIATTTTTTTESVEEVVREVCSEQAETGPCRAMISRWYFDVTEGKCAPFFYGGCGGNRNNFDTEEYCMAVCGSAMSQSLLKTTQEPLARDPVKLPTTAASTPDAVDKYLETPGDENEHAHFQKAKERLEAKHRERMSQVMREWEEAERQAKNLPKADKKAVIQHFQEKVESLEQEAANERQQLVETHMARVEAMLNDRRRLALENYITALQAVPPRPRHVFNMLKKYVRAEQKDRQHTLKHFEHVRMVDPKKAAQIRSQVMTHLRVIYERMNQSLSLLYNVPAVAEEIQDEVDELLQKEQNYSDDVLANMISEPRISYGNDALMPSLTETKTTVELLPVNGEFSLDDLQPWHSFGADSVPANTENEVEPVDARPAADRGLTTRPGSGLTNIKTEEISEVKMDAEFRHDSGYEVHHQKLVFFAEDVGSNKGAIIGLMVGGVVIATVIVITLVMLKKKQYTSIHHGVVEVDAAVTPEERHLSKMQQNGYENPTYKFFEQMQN

Regarding `COc1ccc(OCc2ccc(I)cc2)cc1`, the Ki in series [1] (read-out: Ki) was 24.3 nM; in [1] (read-out: pKi (converted)), 24.5 nM.
As for `COc1cccc(OCc2ccc(I)cc2)c1`, the Ki was 131 nM in [1] (read-out: Ki) and 132 nM in [1] (read-out: pKi (converted)).
Take `COc1ccccc1OCc1ccc(I)cc1`: the Ki in series [1] (read-out: Ki) was 5160 nM; in [1] (read-out: pKi (converted)), 5130 nM.
On to `Oc1ccc(OCc2ccc(I)cc2)cc1`, for which the Ki in [1] (read-out: Ki) was 113 nM; in [1] (read-out: pKi (converted)), 112 nM.
Consider `Oc1cccc(OCc2ccc(I)cc2)c1`, for which the Ki in series [1] (read-out: Ki) was 386 nM; in series [1] (read-out: pKi (converted)) it was 389 nM.
For `Oc1ccccc1OCc1ccc(I)cc1` the same measures were 2830 nM and 2820 nM.
With `Fc1ccc(OCc2ccc(I)cc2)cc1`, the Ki in series [1] (read-out: Ki) and in series [1] (read-out: pKi (converted)) was 107 nM each time.
As for `Clc1ccc(OCc2ccc(I)cc2)cc1`, the Ki in series [1] (read-out: Ki) is 18.8 nM; in series [1] (read-out: pKi (converted)), 18.6 nM.
For `Brc1ccc(OCc2ccc(I)cc2)cc1`, the Ki in series [1] (read-out: Ki) and in series [1] (read-out: pKi (converted)) was 12 nM each time.
Turning to `Ic1ccc(COc2ccc(I)cc2)cc1`, the Ki in series [1] (read-out: Ki) and in series [1] (read-out: pKi (converted)) was 21.9 nM each time.
`Ic1ccc(COc2ccccc2)cc1`: the Ki in [1] (read-out: Ki) and in series [1] (read-out: pKi (converted)) was 79.4 nM each time.
Consider `CC(C)(C)c1ccc(OCc2ccc(I)cc2)cc1`, for which the Ki was 118 nM in series [1] (read-out: Ki) and 117 nM in series [1] (read-out: pKi (converted)).
Take `Nc1ccc(OCc2ccc(I)cc2)cc1`: the Ki is 409 nM in [1] (read-out: Ki) and 407 nM in series [1] (read-out: pKi (converted)).
Turning to `Nc1cccc(OCc2ccc(I)cc2)c1`, the Ki in [1] (read-out: Ki) is 1530 nM; in [1] (read-out: pKi (converted)), 1550 nM.
For `Nc1ccccc1OCc1ccc(I)cc1`, the Ki in series [1] (read-out: Ki) was 1030 nM; in [1] (read-out: pKi (converted)) it was 1020 nM.
As to `CNc1ccc(OCc2ccc(I)cc2)cc1`, the Ki was 48.2 nM in series [1] (read-out: Ki) and 47.9 nM in series [1] (read-out: pKi (converted)).
Consider `CNc1cccc(OCc2ccc(I)cc2)c1`, for which the figures for the Ki in [1] (read-out: Ki) and in [1] (read-out: pKi (converted)) were 594 nM and 589 nM, respectively.
In the case of `CNc1ccccc1OCc1ccc(I)cc1`, the Ki in series [1] (read-out: Ki) is 20700 nM; in [1] (read-out: pKi (converted)), 20900 nM.
As to `CN(C)c1ccc(OCc2ccc(I)cc2)cc1`, the Ki in [1] (read-out: Ki) is 17.6 nM; in [1] (read-out: pKi (converted)), 17.8 nM.
With `CN(C)c1cccc(OCc2ccc(I)cc2)c1`, the Ki was 894 nM in series [1] (read-out: Ki) and 891 nM in [1] (read-out: pKi (converted)).
Consider `COc1ccc(COc2ccc(I)cc2)cc1`, for which the Ki is 49.4 nM in series [1] (read-out: Ki) and 49 nM in series [1] (read-out: pKi (converted)).
With `COc1ccc(SCc2ccc(I)cc2)cc1`, the Ki in [1] (read-out: Ki) was 530 nM; in [1] (read-out: pKi (converted)), 525 nM.
`COc1ccc(OCc2ccc([125I])cc2)cc1` showed a Kd in series [2] of 0.56 nM. The same molecule gave a pH-dependent lipophilicity (logD) in series [3] of 4. In addition, the figures for the Drug uptake in the series with Brain [4] and in the series on Brain [5] were 6.18 % ID/g and under 0.5 % ID/g, respectively. Besides, the Ratio in the series with Brain [6] was determined as 16.3. Further, the Stability was found to be 100% in the series with Plasma; 100% in the series on Liver [7]; 95% in the series with Brain [8]; 82% with Brain [9]; 46.6% in the series with Brain [10]; 38.9% in the series on Brain [11]. Further, the Stability with Blood [12] stood at 71.5%; in the series with Blood [13] it was 49.7%; in the series on Blood [14], 18.2%; in the series on Blood [15], 10.6%; in the series with Liver [16], 42.4%; with Liver [17], 31.9%. Also, the Stability with Liver [18] was determined as 2.5%; in the series on Liver [19], 1.9%; in series [20], 8.4%; in series [21] it was 2.4%; in series [22], 1.3%; in series [23], 49.9%. In addition, the Stability in [24] is listed as 40.6%.
`COc1ccc(COc2ccc([125I])cc2)cc1` showed a log distribution coefficient (logD) in series [3] of 4.16. Besides, the results for the Drug uptake in the series with Brain [4] and with Brain [5] were over 4 % ID/g and under 0.5 % ID/g, respectively.
For `CN(C)c1ccc(OCc2ccc([125I])cc2)cc1`, in that order: 2.89, over 4 % ID/g and under 0.5 % ID/g.

In general, Kd refers to a measure of binding affinity in units of concentration. Low readings indicate tighter binding, high ones weaker binding. For orientation: logD means lipophilicity at a set pH, counting ionised and neutral species. A lower logD goes with lower lipophilicity.
